Laboratory results from patent US20040043959A1, “Combination therapies for treating methylthioadenosine phosphorylase deficient cells” (priority 2002, published 2004).

Target: T1, Human MTAP (Homo sapiens, UniProt Q13126)
T1 construct: six-histidine tag (His6) (N); made in house; host or cells: E. coli BL21 DE3
T1 sequence (Q13126 1-283): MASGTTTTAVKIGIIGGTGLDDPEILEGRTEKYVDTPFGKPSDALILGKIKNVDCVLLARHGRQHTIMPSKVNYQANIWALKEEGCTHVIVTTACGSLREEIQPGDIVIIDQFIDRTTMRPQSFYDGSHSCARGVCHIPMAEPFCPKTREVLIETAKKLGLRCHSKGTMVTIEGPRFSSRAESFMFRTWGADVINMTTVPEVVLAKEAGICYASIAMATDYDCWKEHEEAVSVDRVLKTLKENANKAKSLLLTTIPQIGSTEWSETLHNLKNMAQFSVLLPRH
Test: MTAP substrate assay, coupled spectrophotometric (adenine, xanthine oxidase)
Format: biochemical
Details: 2 nM MTAP; for activity at 50 µM: 10 min, compound 50 uM, relative to MTA at 50 uM, read-out: MT-A—50: initial velocity as a percentage of the initial velocity with MTA as substrate; for MT-A—10: initial velocity as a percentage of the initial velocity with MTA as substrate: compound 10 uM, relative to MTA at 10 uM
How it was run: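 Detection was xanthine oxidase-coupled (0.8 units/ml), reading adenine-derived absorbance at 305 nm over 10 min in potassium phosphate/DTT buffer at 37° C, with N-His6 enzyme purified from E. coli.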

Nc1ncnc2c1ncn2[C@@H]1O[C@H](CSc2cccc(F)c2)[C@@H](O)[C@H]1O [2(G)(147), (2R, 3R, 4S, 5S)-2-(6-amino-9H-purin-9-yl)-5-{[(3-fluorophenyl)-thio]methyl}tetrahydro-furan-3,4-diol]
activity at 50 µM: 25.5% | MT-A—10: initial velocity as a percentage of the initial velocity with MTA as substrate: 18.5%

Cc1cc(C)cc(SC[C@H]2O[C@@H](n3cnc4c(N)ncnc43)[C@H](O)[C@@H]2O)c1 [2(G)(148), (2R, 3R, 4S, 5S)-2-(6-amino-9H-purin-9-yl)-5-{[(3,5-dimethylphenyl)-thio]methyl}tetrahydro-furan-3,4-diol]
activity at 50 µM: 15% | MT-A—10: initial velocity as a percentage of the initial velocity with MTA as substrate: 2%

Cc1ccc(SC[C@H]2O[C@@H](n3cnc4c(N)ncnc43)[C@H](O)[C@@H]2O)c(C)c1 [2(G)(149), (2R, 3R, 4S, 5S)-2-(6-amino-9H-purin-9-yl)-5-{[(2,4-dimethylphenyl)-thio]methyl}tetrahydro-furan-3,4-diol]
activity at 50 µM: 2.5% | MT-A—10: initial velocity as a percentage of the initial velocity with MTA as substrate: 35.5%

Cc1ccc(SC[C@H]2O[C@@H](n3cnc4c(N)ncnc43)[C@H](O)[C@@H]2O)cc1C [2(G)(150), (2R, 3R, 4S, 5S)-2-(6-amino-9H-purin-9-yl)-5-{[(3,4-dimethylphenyl)-thio]methyl}tetrahydro-furan-3,4-diol]
activity at 50 µM: 33.5% | MT-A—10: initial velocity as a percentage of the initial velocity with MTA as substrate: 2%

Nc1ncnc2c1ncn2[C@@H]1O[C@H](CSc2cccc(Cl)c2Cl)[C@@H](O)[C@H]1O [2(G)(151), (2R, 3R, 4S, 5S)-2-(6-amino-9H-purin-9-yl)-5-{[(2,3-dichlorophenyl)-thio]methyl}tetrahydro-furan-3,4-diol]
activity at 50 µM: 2% | MT-A—10: initial velocity as a percentage of the initial velocity with MTA as substrate: 13.5%

CSc1nsc(SC[C@H]2O[C@@H](n3cnc4c(N)ncnc43)[C@H](O)[C@@H]2O)n1 [2(G)(152), (2R, 3R, 4S, 5S)-2-(6-amino-9H-purin-9-yl)-5-({[3-(methylthio)-1,2,4-thiodiazol-5-yl)-thio}methyl)tetrahydro-furan-3,4-diol]
activity at 50 µM: 17% | MT-A—10: initial velocity as a percentage of the initial velocity with MTA as substrate: 19.5%

Nc1ncnc2c1ncn2[C@@H]1O[C@H](CSc2nc3ccc(Cl)cc3o2)[C@@H](O)[C@H]1O [2(G)(153), (2R, 3R, 4S, 5S)-2-(6-amino-9H-purin-9-yl)-5-{[(6-chloro-1,3-benz-oxazol-2-yl)thio]methyl}tetrahydrofuran-3,4-diol]
activity at 50 µM: 22.5% | MT-A—10: initial velocity as a percentage of the initial velocity with MTA as substrate: 10%

Cc1cc(C)nc(SC[C@H]2O[C@@H](n3cnc4c(N)ncnc43)[C@H](O)[C@@H]2O)n1 [2(G)(154), (2R, 3R, 4S, 5S)-2-(6-amino-9H-purin-9-yl)-5-{[(4,6-dimethyl-pyrimidin-2-yl)thio]methyl}tetrahydrofuran-3,4-diol]
activity at 50 µM: 26% | MT-A—10: initial velocity as a percentage of the initial velocity with MTA as substrate: 39%

Cc1cnc(SC[C@H]2O[C@@H](n3cnc4c(N)ncnc43)[C@H](O)[C@@H]2O)nc1O [2(G)(155), (2R, 3R, 4S, 5S)-2-(6-amino-9H-purin-9-yl)-5-{[(4-hydroxy-5-methyl-pyrimidin-2-yl)thio]-methyl}tetrahydrofuran-3,4-diol]
activity at 50 µM: 39% | MT-A—10: initial velocity as a percentage of the initial velocity with MTA as substrate: 22.5%

CC(SC[C@H]1O[C@@H](n2cnc3c(N)ncnc32)[C@H](O)[C@@H]1O)c1ccccc1 (stereo partly drawn) [2(G)(156), (2R, 3R, 4S, 5S)-2-(6-amino-9H-purin-9-yl)-5-{[(1-phenylethyl)thio]-methyl}tetrahydrofuran-3,4-diol]
activity at 50 µM: 33% | MT-A—10: initial velocity as a percentage of the initial velocity with MTA as substrate: 6%

Nc1ncnc2c1ncn2[C@@H]1O[C@H](CSc2ccccc2CO)[C@@H](O)[C@H]1O [2(G)(157), (2R, 3R, 4S, 5S)-2-(6-amino-9H-purin-9-yl)-5-({[2-(hydroxymethyl)-phenyl]thio}methyl)tetra-hydrofuran-3,4-diol]
activity at 50 µM: 15.5% | MT-A—10: initial velocity as a percentage of the initial velocity with MTA as substrate: 32.5%
